Source: publication PMC2866172 (Journal of medicinal chemistry, 2010)

Legend:
[1] = Torso PET imaging in anesthetized baboons; conditions: for Calculated drug concentration in heart / Calculated drug concentration in kidney cortex / Calculated drug concentration in kidney medulla / Calculated drug concentration in liver / Calculated drug concentration in lung / Calculated drug concentration in plasma: 17 kg baboon; for Concentration in heart / Concentration in kidney cortex / Concentration in kidney medulla / Concentration in liver / Concentration in lung / Concentration in plasma: baboon, i.v.
[2] = Brain PET imaging in anesthetized baboons; conditions: for Estimated concentration in whole brain, C30min / Concentration in whole brain, C30min: 30 min; for Estimated concentration in whole brain, C30min / Estimated concentration in whole brain, C60min / Estimated concentration in whole brain, C90min: estimated from baboon weight, signal assumed intact drug; for Estimated concentration in whole brain, C60min / Concentration in whole brain, C60min: 60 min; for Estimated concentration in whole brain, C90min / Concentration in whole brain, C90min: 90 min; for Concentration in whole brain, C30min / Concentration in whole brain, C60min / Concentration in whole brain, C90min: baboon
[3] = 15 min, calculated assuming 5 mg/kg dose
[4] = 30 min, calculated assuming 5 mg/kg dose
[5] = 60 min, calculated assuming 5 mg/kg dose
[6] = 90 min, calculated assuming 5 mg/kg dose
[7] = 15 min, calculated assuming 20 mg/kg dose
[8] = 30 min, calculated assuming 20 mg/kg dose
[9] = 60 min, calculated assuming 20 mg/kg dose
[10] = 90 min, calculated assuming 20 mg/kg dose

For `NN[11C](=O)c1ccncc1` [[^11C]INH], the “Calculated drug concentration in heart” value [1, 3] was “(8.72) µg/ml”, the “Calculated drug concentration in kidney cortex” value [1, 3] was “(15.06) µg/ml” and the “Calculated drug concentration in kidney medulla” value [1, 3] was “(18.94) µg/ml”. The “Calculated drug concentration in liver” value [1, 3] was “(12.50) µg/ml”, the “Calculated drug concentration in lung” value [1, 3] was “(7.72) µg/ml” and the “Calculated drug concentration in plasma” value [1, 3] was “(3.76) µg/ml”. The “Calculated drug concentration in heart” value [1, 4] was “(6.13) µg/ml”, the “Calculated drug concentration in kidney cortex” value [1, 4] was “(9.26) µg/ml” and the “Calculated drug concentration in kidney medulla” value [1, 4] was “(15.43) µg/ml”. The “Calculated drug concentration in liver” value [1, 4] was “(9.71) µg/ml”, the “Calculated drug concentration in lung” value [1, 4] was “(6.09) µg/ml” and the “Calculated drug concentration in plasma” value [1, 4] was “(2.96) µg/ml”. The “Calculated drug concentration in heart” value [1, 5] was “(3.74) µg/ml”, the “Calculated drug concentration in kidney cortex” value [1, 5] was “(7.72) µg/ml” and the “Calculated drug concentration in kidney medulla” value [1, 5] was “(16.37) µg/ml”. The “Calculated drug concentration in liver” value [1, 5] was “(7.64) µg/ml”, the “Calculated drug concentration in lung” value [1, 5] was “(4.42) µg/ml” and the “Calculated drug concentration in plasma” value [1, 5] was “(2.05) µg/ml”. The “Calculated drug concentration in heart” value [1, 6] was “(4.15) µg/ml”, the “Calculated drug concentration in kidney cortex” value [1, 6] was “(8.54) µg/ml” and the “Calculated drug concentration in kidney medulla” value [1, 6] was “(14.69) µg/ml”. For the same compound, the “Calculated drug concentration in liver” value [1, 6] was “(6.91) µg/ml”, the “Calculated drug concentration in lung” value [1, 6] was “(4.19) µg/ml” and the “Calculated drug concentration in plasma” value [1, 6] was “(1.62) µg/ml”. For the same compound, the Concentration in heart ([1]; 15 min after administration) was 0.0103 %ID/cc, the “Concentration in kidney cortex” value ([1]; 15 min after administration) was 0.0177 %ID/cc and the “Concentration in kidney medulla” value ([1]; 15 min after administration) was 0.0223 %ID/cc. For the same compound, the Concentration in liver ([1]; 15 min after administration) was 0.0147 %ID/cc, the Concentration in lung ([1]; 15 min after administration) was 0.0091 %ID/cc and the Concentration in plasma ([1]; 15 min after administration) was 0.00442 %ID/cc. For the same compound, the Concentration in heart ([1]; 30 min after administration) was 0.0072 %ID/cc, the “Concentration in kidney cortex” value ([1]; 30 min after administration) was 0.0109 %ID/cc and the “Concentration in kidney medulla” value ([1]; 30 min after administration) was 0.0181 %ID/cc. For the same compound, the Concentration in liver ([1]; 30 min after administration) was 0.0114 %ID/cc, the Concentration in lung ([1]; 30 min after administration) was 0.0072 %ID/cc and the Concentration in plasma ([1]; 30 min after administration) was 0.00348 %ID/cc. The Concentration in heart ([1]; 60 min after administration) was 0.0044 %ID/cc, the “Concentration in kidney cortex” value ([1]; 60 min after administration) was 0.0091 %ID/cc and the “Concentration in kidney medulla” value ([1]; 60 min after administration) was 0.0193 %ID/cc. The Concentration in liver ([1]; 60 min after administration) was 0.0090 %ID/cc, the Concentration in lung ([1]; 60 min after administration) was 0.0052 %ID/cc and the Concentration in plasma ([1]; 60 min after administration) was 0.00241 %ID/cc. The Concentration in heart ([1]; 90 min after administration) was 0.0049 %ID/cc, the “Concentration in kidney cortex” value ([1]; 90 min after administration) was 0.0100 %ID/cc and the “Concentration in kidney medulla” value ([1]; 90 min after administration) was 0.0173 %ID/cc. It also gave a Concentration in liver ([1]; 90 min after administration) of 0.0081 %ID/cc, a Concentration in lung ([1]; 90 min after administration) of 0.0049 %ID/cc and a Concentration in plasma ([1]; 90 min after administration) of 0.0019 %ID/cc. The “Estimated concentration in whole brain, C30min” value ([2]; 5 mg/kg dose) was 2.54 µg/mL, the “Estimated concentration in whole brain, C60min” value ([2]; 5 mg/kg dose) was 2.11 µg/mL and the “Estimated concentration in whole brain, C90min” value ([2]; 5 mg/kg dose) was 1.75 µg/mL. For the same compound, the “Concentration in whole brain, C30min” value ([2]; i.v.) was 0.00299 %ID/cc, the “Concentration in whole brain, C60min” value ([2]; i.v.) was 0.00248 %ID/cc and the “Concentration in whole brain, C90min” value ([2]; i.v.) was 0.00206 %ID/cc. For the same compound, the Blood-brain barrier penetration ([2]; healthy baboons, i.v., TAC, AUC and image) was “higher initial brain penetration and tissue accumulation when compared to RIF”.
For `N[11C](=O)c1cnccn1` [[^11C]PZA], the “Calculated drug concentration in heart” value [1, 7] was “(67.76) µg/ml”, the “Calculated drug concentration in kidney cortex” value [1, 7] was “(20.52) µg/ml” and the “Calculated drug concentration in kidney medulla” value [1, 7] was “(617.02) µg/ml”. For the same compound, the “Calculated drug concentration in liver” value [1, 7] was “(36.14) µg/ml”, the “Calculated drug concentration in lung” value [1, 7] was “(35.03) µg/ml” and the “Calculated drug concentration in plasma” value [1, 7] was “(22.03) µg/ml”. The “Calculated drug concentration in heart” value [1, 8] was “(61.50) µg/ml”, the “Calculated drug concentration in kidney cortex” value [1, 8] was “(16.59) µg/ml” and the “Calculated drug concentration in kidney medulla” value [1, 8] was “(474.39) µg/ml”. For the same compound, the “Calculated drug concentration in liver” value [1, 8] was “(26.96) µg/ml”, the “Calculated drug concentration in lung” value [1, 8] was “(26.48) µg/ml” and the “Calculated drug concentration in plasma” value [1, 8] was “(14.59) µg/ml”. For the same compound, the “Calculated drug concentration in heart” value [1, 9] was “(57.59) µg/ml”, the “Calculated drug concentration in kidney cortex” value [1, 9] was “(12.55) µg/ml” and the “Calculated drug concentration in kidney medulla” value [1, 9] was “(343.00) µg/ml”. For the same compound, the “Calculated drug concentration in liver” value [1, 9] was “(21.98) µg/ml”, the “Calculated drug concentration in lung” value [1, 9] was “(22.17) µg/ml” and the “Calculated drug concentration in plasma” value [1, 9] was “(11.25) µg/ml”. For the same compound, the “Calculated drug concentration in heart” value [1, 10] was “(59.49) µg/ml”, the “Calculated drug concentration in kidney cortex” value [1, 10] was “(9.93) µg/ml” and the “Calculated drug concentration in kidney medulla” value [1, 10] was “(229.44) µg/ml”. The “Calculated drug concentration in liver” value [1, 10] was “(19.19) µg/ml”, the “Calculated drug concentration in lung” value [1, 10] was “(18.58) µg/ml” and the “Calculated drug concentration in plasma” value [1, 10] was “(9.04) µg/ml”. For the same compound, the Concentration in heart ([1]; 15 min after administration) was 0.0199 %ID/cc, the “Concentration in kidney cortex” value ([1]; 15 min after administration) was 0.0060 %ID/cc and the “Concentration in kidney medulla” value ([1]; 15 min after administration) was 0.1815 %ID/cc. For the same compound, the Concentration in liver ([1]; 15 min after administration) was 0.0106 %ID/cc, the Concentration in lung ([1]; 15 min after administration) was 0.0103 %ID/cc and the Concentration in plasma ([1]; 15 min after administration) was 0.00648 %ID/cc. The Concentration in heart ([1]; 30 min after administration) was 0.0181 %ID/cc, the “Concentration in kidney cortex” value ([1]; 30 min after administration) was 0.0049 %ID/cc and the “Concentration in kidney medulla” value ([1]; 30 min after administration) was 0.1395 %ID/cc. For the same compound, the Concentration in liver ([1]; 30 min after administration) was 0.0079 %ID/cc, the Concentration in lung ([1]; 30 min after administration) was 0.0078 %ID/cc and the Concentration in plasma ([1]; 30 min after administration) was 0.00429 %ID/cc. The Concentration in heart ([1]; 60 min after administration) was 0.0169 %ID/cc, the “Concentration in kidney cortex” value ([1]; 60 min after administration) was 0.0037 %ID/cc and the “Concentration in kidney medulla” value ([1]; 60 min after administration) was 0.1009 %ID/cc. It also gave a Concentration in liver ([1]; 60 min after administration) of 0.0065 %ID/cc, a Concentration in lung ([1]; 60 min after administration) of 0.0065 %ID/cc and a Concentration in plasma ([1]; 60 min after administration) of 0.00331 %ID/cc. The Concentration in heart ([1]; 90 min after administration) was 0.0175 %ID/cc, the “Concentration in kidney cortex” value ([1]; 90 min after administration) was 0.0029 %ID/cc and the “Concentration in kidney medulla” value ([1]; 90 min after administration) was 0.0675 %ID/cc. It also gave a Concentration in liver ([1]; 90 min after administration) of 0.0056 %ID/cc, a Concentration in lung ([1]; 90 min after administration) of 0.0055 %ID/cc and a Concentration in plasma ([1]; 90 min after administration) of 0.00266 %ID/cc. For the same compound, the “Estimated concentration in whole brain, C30min” value ([2]; 20 mg/kg dose) was 21.05 µg/mL, the “Estimated concentration in whole brain, C60min” value ([2]; 20 mg/kg dose) was 15.74 µg/mL and the “Estimated concentration in whole brain, C90min” value ([2]; 20 mg/kg dose) was 13.70 µg/mL. The “Concentration in whole brain, C30min” value ([2]; i.v.) was 0.00619 %ID/cc, the “Concentration in whole brain, C60min” value ([2]; i.v.) was 0.00463 %ID/cc and the “Concentration in whole brain, C90min” value ([2]; i.v.) was 0.00403 %ID/cc.
